According to Sander's compilation of Henry's law constants (doi:10.1016/j.atmosenv.2006.04.009):

Assay: Henry solubility constant Hcp at 298.15 K (mol/(m3 Pa))
Conditions: reference: Cetin et al. (2006)

Compound	Henry solubility constant Hcp
ClC1=C(Cl)[C@]2(Cl)[C@H]3[C@H]([C@@H]4C=C[C@H]3C4)[C@@]1(Cl)C2(Cl)Cl [aldrin]	0.022
ClC1C(Cl)C(Cl)C(Cl)C(Cl)C1Cl (stereo not given) [γ-1,2,3,4,5,6-hexachlorocyclohexane]	3.9
CCOP(=S)(OCC)Oc1nc(Cl)c(Cl)cc1Cl [chlorpyrifos]	0.22
ClC1=C(Cl)C2(Cl)C3C(Cl)C=CC3C1(Cl)C2(Cl)Cl (stereo not given) [heptachlor]	0.019
ClC1=C(Cl)[C@]2(Cl)[C@@H]3[C@@H]4C[C@@H]([C@H]5O[C@@H]45)[C@@H]3[C@@]1(Cl)C2(Cl)Cl [dieldrin]	0.92
ClC1=C(Cl)[C@]2(Cl)[C@@H]3[C@H]4C[C@H]([C@@H]5O[C@H]45)[C@@H]3[C@@]1(Cl)C2(Cl)Cl [endrin]	1.8
ClC1=C(Cl)[C@]2(Cl)[C@@H]3[C@@H](Cl)[C@@H](Cl)C[C@@H]3[C@@]1(Cl)C2(Cl)Cl [cis-chlordane]	0.15
ClC1=C(Cl)[C@]2(Cl)[C@H]3[C@H](Cl)[C@@H](Cl)C[C@H]3[C@@]1(Cl)C2(Cl)Cl [trans-chlordane]	0.063
ClC1C(Cl)C(Cl)C(Cl)C(Cl)C1Cl (stereo not drawn) [α-1,2,3,4,5,6-hexachlorocyclohexane]	3
ClC(Cl)=C(c1ccc(Cl)cc1)c1ccc(Cl)cc1 [1,1-dichloro-2,2-bis-(4-chlorophenyl)-ethene]	0.16
Clc1ccc(C(c2ccc(Cl)cc2)C(Cl)(Cl)Cl)cc1 [1,1,1-trichloro-2,2-bis-(4-chlorophenyl)-ethane]	0.9
ClC1=C(Cl)C2(Cl)C3C(Cl)C(Cl)C(Cl)C3C1(Cl)C2(Cl)Cl (stereo not drawn) [trans-nonachlor]	0.088
Clc1ccc(C(c2ccc(Cl)cc2)C(Cl)Cl)cc1 [1,1-dichloro-2,2-bis-(4-chlorophenyl)-ethane]	0.91
ClC1=C(Cl)C2(Cl)[C@H]3C(Cl)C(Cl)C(Cl)[C@H]3C1(Cl)C2(Cl)Cl (stereo partly drawn) [cis-nonachlor]	1.4
ClC1=C(Cl)C2(Cl)C3C4OC4C(Cl)C3C1(Cl)C2(Cl)Cl (stereo not given) [heptachlorepoxide]	0.5
